Entries after “also recorded” stand apart in the source; their conditions may differ.
Test system: kmt2d CRISPR mosaic mutants (F0)
Assay: Jaw defects in kmt2d-CRISPR F0 mutants
Format: in vivo, zebrafish
Conditions: kmt2d-CRISPR F0, 100 nM, 5 dpf; listed as dmDf
Description: Prior and current genetic zebrafish models of KS focused on the newly discovered rap1a/rap1b genes. However, from the perspective of clinical utility, dmDf should be efficacious in kmt2d mutants, since loss of function mutations of the human ortholog account for as much as 75% of KS (see, Ng, S. B. et al. Nat Genet 42, 790-3 (2010); Li, Y. et al. Hum Genet 130, 715-24 (2011); Lu, J., Mo, G., Ling, Y. & Ji, L. Mol Med Rep 14, 3641-5 (2016); Miyake, N. et al. Am J Med Genet A 161a, 2234-43 (2013)). Therefore, experiments supplemented the testing tools by creating a kmt2d CRISPR/Cas9 mutant. A guide RNA targeting exon 4 of kmt2d induced efficient (˜99%) Cas9-mediated genome editing (FIG. 8). […]
For convergence and extension (CE) phenotyping, embryos were scored as described (see, Leitch, C. C. et al. Nat Genet 40, 443-8 (2008)) at the 8-10 somite stage, and images were captured using an AZ100 microscope and NIS Elements software (Nikon). […] The distance between Meckel's (MK) and ceratohyal (CH) cartilages was measured on ventral bright field images with Image J (NIH). […] Fluorescence signal on embryo heads was imaged with the Nikon AZ100 microscope and DS-Qi1MC digital camera using […] Z-stacks to generate extended depth of focus images. Cell numbers were quantified using the ImageJ ICTN plugin (NIH). […]

CC(C)c1nc(-c2cccc(NS(=O)(=O)c3c(F)cccc3F)c2F)c(-c2ccnc(N)n2)s1 [Compound 8, desmethyl-Dabrafenib]
jaw defects (MK-CH distance): ameliorates the jaw defects; also recorded: ameliorated significantly

From patent US20210196714A1, “COMPOSITIONS AND METHODS FOR TREATING DISORDERS CHARACTERIZED WITH ABERRANT RAS/MAPK SIGNALING” (Duke University, priority 2018, published 2021)
